Key:
WT STING = biological target: T1, WT STING (Homo sapiens, UniProt Q86WV6, H232R); test: Differential Scanning Fluorimetry (DSF) with WT STING; assay type: binding; settings: thermal shift vs STING apoprotein; 150 μM CDN; 0.1 mg/ml protein; SYPRO Orange
T1 construct: encoded truncated human WT STING or AQ STING (amino acid residues 140-343) with N-terminal 8×His and SUMO tag; 8xHis-SUMO (N, cleaved yes); made in house; host or cells: E. coli Rosetta-gami B (DE3)
Procedure: (§1) WT STING and AQ STING Proteins
(§2) Purified PCR products were cleaved with restriction enzymes BamHI (cat. #R0136S, NEB, Ipswich, USA) and NotI (cat. #R0189S, NEB, Ipswich, USA) and cloned into the pSUMO vector linearized with the identical enzymes.
(§3) DNase I (cat. #D5025, Sigma Aldrich, Czech Republic) and RNase A (cat. #R6513, Sigma Aldrich, Czech Republic) were added (final concentration 50 μg/ml) together with MgCl2 (final concentration 5 mmol·l^−1) to the homogenate and bacteria were lysed using French Press G-M™ High-Pressure Cell Press Homogenizer (1500 psi, 3 cycles). […] The resin was poured into a chromatography column, washed with 50 ml buffer A (50 mmol·l^−1 TrisCl (pH 8.0), 800 mmol·l^−1 NaCl, 3 mmol·l^−1 3-mercaptol; 10% glycerol; 20 mmol·l^−1 imidazole) and 8-His-SUMO tagged STING proteins were eluted with 15 ml buffer A containing 300 mmol·l^−1 imidazole. […] Proteins were concentrated with Amicon® Ultra-15 10 K device (cat. #UFC901008, Merck Millipore, Billerica, USA) and flash frozen in liquid N2.
(§4) Differential Scanning Fluorimetry (DSF) with WT STING and AQ STING
(§5) 20 μL solutions of the reaction mixtures were pipetted in triplicates into 96 well optical reaction plates and thermal denaturation of samples were performed on real time PCR cycler (LightCycler R 480 Instrument II—Roche, Basel, Switzerland). The first derivative of the thermal denaturation curves was performed to calculate denaturing temperatures of STING-CDN complexes and STING apoproteins. The thermal shift for each CDN was calculated by subtracting the average denaturing temperature of STING apoprotein from the average denaturing temperature of STING CDN complex.

[1] = biological target: T2, human wild type STING (WT STING) (Homo sapiens, UniProt Q86WV6, H232R); test: Digitonin assay using 293T wtSTING-FL reporter cells; assay type: cell-based; settings: 293T wtSTING-FL cells; ISRE firefly luciferase reporter; 30 min in Digitonin buffer, then 5 hours; 8-point dose-response curve
T2 construct: host or cells: 293T (ATCC CRL-3216), stably transfected, with a 4xISRE firefly luciferase reporter
T2 sequence (Q86WV6 whole entry H232R): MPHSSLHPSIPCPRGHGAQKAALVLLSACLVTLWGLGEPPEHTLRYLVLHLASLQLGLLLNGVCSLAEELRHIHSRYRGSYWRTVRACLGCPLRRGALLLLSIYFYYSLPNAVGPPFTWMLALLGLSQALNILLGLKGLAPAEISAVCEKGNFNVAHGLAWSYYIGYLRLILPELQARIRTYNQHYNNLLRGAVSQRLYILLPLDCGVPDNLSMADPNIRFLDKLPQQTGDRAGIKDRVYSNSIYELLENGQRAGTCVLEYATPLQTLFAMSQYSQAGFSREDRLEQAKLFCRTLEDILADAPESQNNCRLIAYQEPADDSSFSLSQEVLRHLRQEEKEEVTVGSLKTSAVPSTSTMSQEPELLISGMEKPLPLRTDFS
Description: ISRE Reporter Plasmid (pGL64.27-4×ISRE)
Two complementary oligonucleotides of the sequence […] […] […] […] […] The oligonucleotides were mixed in equal molar amounts, hybridized, and cleaved by restriction endonucleases HindIII (cat. #. R0104S, NEB, Ipswich, USA) and BglII (cat. #R0144S, NEB, Ipswich, USA). Ultimately, they were ligated into plasmid pGL4.27 (cat. #E6651, Promega, Madison, USA) linearized with the same enzymes. As result the sequence with four ISRE sites was placed upstream of the minimum promoter of firefly luciferase reporter gene.
After 5 minutes incubation at room temperature (RT), 250 μL of the mixture was added dropwise to the cells in one well. Cells were incubated 36 hours at 37° C. with 5% CO2, and then detached with 0.05% Trypsin and 0.22 g/L EDTA (both cat. #L0941, Biowest, Riverside, USA).
Transfected cells were seeded onto poly-D-lysine coated six well plates at density 50,000 cells per 1 cm^2 in DMEM medium with high glucose containing 10% heat inactivated FBS, 30 μg/mL blasticidin (cat. #ant-bl-05, InvivoGen, San Diego, USA), 0.06 mg/ml Penicillin G and 0.1 mg/ml Streptomycin Sulfate (both cat. #. L0018, Biowest, Riverside, USA). The medium was replenished every 3-4 days until visible colonies of cells resistant to blasticidin were formed.
Blasticidin resistant cells stably expressing WT STING were further transfected with pGL64.27-4×ISRE plasmid following the same procedure as described above. […] Homogeneous culture of stably double transfected cells was prepared by limiting dilution of cells in 96 well plates and wells with cells were selected that originated from a single cell.
The medium was removed next day and three fold serial dilutions of compounds in Digitonin buffer containing 50 mmol·l^−1 HEPES (cat. #H3375, Sigma Aldrich, Czech Republic) pH 7.0, 100 mmol·l^−1 KCl, 3 mmol·l^−1 MgCl2, 0.1 mmol·l^−1 DTT (cat. #D0632, Sigma Aldrich, Czech Republic), 85 mmol·l^−1 Sucrose (cat. #S7903, Sigma Aldrich, Czech Republic), 0.2% BSA (cat. #A2153, Sigma Aldrich, Czech Republic), 1 mmol·l^−1 ATP (cat. #A1852, Sigma Aldrich, Czech Republic), 0.1 mmol·l^−1 GTP (cat. #G8877, Sigma Aldrich, Czech Republic), and 10 μg/mL Digitonin A (cat. #D141, Sigma Aldrich, Czech Republic) were added to the cells. The buffer was removed after 30 minutes incubation at 37° C. with 5% CO2, the cells were washed once with 100 μl of cultivation medium, and 100 μl of medium was added to each well. The plates with cells were incubated for 5 hours at 37° C. with 5% CO2, 50 μl of the medium was removed and 30 μl of ONE-Glo™ Luciferase Assay System reagent (cat. #E6120, Promega, Madison, USA) was added to each well. Luminescence was read on Synergy H1 (Biotek, Winooski, USA).

AQ STING (G230A-R293Q) = biological target: T3, AQ STING (G230A-R293Q) (Homo sapiens, UniProt Q86WV6, G230A/H232R/R293Q); test: Differential Scanning Fluorimetry (DSF) with AQ STING; assay type: binding; settings: thermal shift vs STING apoprotein; 150 μM CDN; 0.1 mg/ml protein; SYPRO Orange
T3 construct: encoded truncated human WT STING or AQ STING (amino acid residues 140-343) with N-terminal 8×His and SUMO tag; 8xHis-SUMO (N, cleaved yes); made in house; host or cells: E. coli Rosetta-gami B (DE3)
T3 sequence (Q86WV6 140-343 G230A/H232R/R293Q): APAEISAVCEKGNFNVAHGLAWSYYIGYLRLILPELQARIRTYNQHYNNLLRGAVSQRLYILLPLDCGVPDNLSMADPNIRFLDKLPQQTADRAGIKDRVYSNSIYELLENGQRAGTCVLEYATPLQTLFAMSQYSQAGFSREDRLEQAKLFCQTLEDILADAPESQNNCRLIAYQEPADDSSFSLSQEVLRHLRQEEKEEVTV
Procedure: as §1, §2, §3, §4, §5

T1 sequence (Q86WV6 140-343 H232R): as the sequence (Q86WV6 140-343 G230A/H232R/R293Q) above, with A91G, Q154R counted along it

ΔTm at 150 µM (WT STING) [°C] | EC50 [1] [nM] | ΔTm at 150 µM (AQ STING (G230A-R293Q)) [°C] | DSF ΔTm WT STING (WT STING) [°C] | DSF ΔTm AQ STING (AQ STING (G230A-R293Q)) [°C] | Compound
1.1 | 2200 | 6.3 |  |  | Nc1ncnc2c1ncn2[C@@H]1O[C@@H]2OCP(=O)(O)OC3C(O)[C@H](n4cnc5c(N)nc(F)nc54)O[C@@H]3COP(=O)(O)OC2C1O (stereo partly drawn) [Compound 52]
 | 110 |  | 5.7 | 12.0 | (2R,3R,3aS,7aR,9R,10R,10aR,14aR)-2,9-bis(6-amino-9H-purin-9-yl)-10-fluoro-3,5,12-trihydroxydecahydrodifuro[3,2-d:3′,2′-i][1,3,6,9]tetraoxa[2,8]diphosphacyclododecine 5,12-dioxide [Compound 33]

Continued, compound first:

Compound | ΔTm at 150 µM (WT STING) [°C] | EC50 [1] [nM] | ΔTm at 150 µM (AQ STING (G230A-R293Q)) [°C] | DSF ΔTm WT STING (WT STING) [°C] | DSF ΔTm AQ STING (AQ STING (G230A-R293Q)) [°C]
Nc1ncnc2c1ncn2[C@@H]1O[C@@H]2OCP(=O)(O)OC3C(O)[C@H](n4cnc5c(N)ncnc54)O[C@@H]3COP(=O)(O)OC2C1O (stereo partly drawn) [Compound 51] | 4 | 170 | 10.6 |  | 
Nc1ncnc2c1ncn2[C@@H]1O[C@@H]2OCP(=O)(O)OC3C(F)[C@H](n4cnc5c(N)nc(F)nc54)O[C@@H]3COP(=O)(O)OC2C1O (stereo partly drawn) [Compound 53] | 3 | 900 | 8.8 |  | 
Nc1nc2c(nnn2[C@@H]2O[C@@H]3OCP(=O)(O)OC4C(O)[C@H](n5cnc6c(N)ncnc65)O[C@@H]4COP(=O)(O)OC3C2O)c(=O)[nH]1 (stereo partly drawn) [Compound 54] | 3.9 | 60 | 12.2 |  | 

Reference: patent publication US10966999B2, “3′3′ cyclic dinucleotides with phosphonate bond activating the sting adaptor protein” (INSTITUTE OF ORGANIC CHEMISTRY AND BIOCHEMISTRY ASCR, V.V.I., priority 2017, dated 2021)
